7 molecules from article PMC8266621 (2021) can be followed below.

The test system of test [1] is 46 nt NMT1 RNA (GAAA loop), wild-type xanthine riboswitch (RNA, riboswitch) GGAGUAGAAGCGUUCAGCGGCCGAAAGGCCGCCCGGAAAUUGCUCC
The experiment in a line: ITC. The conditions noted are these: K+ 50 mM, Mg2+ 10 mM, 50 mM Tris pH 8.0, 25 °C; for binding: RNA (1.4 mM stock) titrated into 0.1 mM ligand, N.D.; for Kd: RNA titrated into 0.1 mM ligand.

Test [2] deals with G7A-A8G (RNA, riboswitch) GGAGUAAGAGCGUUCAGCGGCCGAAAGGCCGCCCGGAAAUUGCUCC
Kind of test: ITC. The conditions noted are these: K+ 50 mM, Mg2+ 10 mM; 50 mM Tris pH 8.0, 25 °C; RNA (1.4 mM stock) titrated into 0.1 mM ligand.

The test system of test [3] is G10C-U40A (RNA, riboswitch) GGAGUAGAACCGUUCAGCGGCCGAAAGGCCGCCCGGAAAAUGCUCC
Kind of test: ITC. The conditions noted are these: K+ 50 mM, Mg2+ 10 mM; 50 mM Tris pH 8.0, 25 °C; RNA (1.4 mM stock) titrated into 0.1 mM ligand.

In test [4] the test system is C34A (RNA, riboswitch) GGAGUAGAAGCGUUCAGCGGCCGAAAGGCCGCCAGGAAAUUGCUCC
Kind of test: ITC. To be noted: K+ 50 mM, Mg2+ 10 mM; 50 mM Tris pH 8.0, 25 °C; comparable to wild-type.

The subject of test [5] is C34U (RNA, riboswitch) GGAGUAGAAGCGUUCAGCGGCCGAAAGGCCGCCUGGAAAUUGCUCC
The experiment in a line: ITC. To be noted: K+ 50 mM, Mg2+ 10 mM; 50 mM Tris pH 8.0, 25 °C; 3- to 4-fold decrease.

The test system of test [6] is G12A (RNA, riboswitch) GGAGUAGAAGCAUUCAGCGGCCGAAAGGCCGCCCGGAAAUUGCUCC
The experiment in a line: ITC. The conditions noted are these: K+ 50 mM, Mg2+ 10 mM; 50 mM Tris pH 8.0, 25 °C; 7-fold decrease.

Test [7] has as its system U40C (RNA, riboswitch) GGAGUAGAAGCGUUCAGCGGCCGAAAGGCCGCCCGGAAACUGCUCC
The experiment in a line: ITC. To be noted: K+ 50 mM, Mg2+ 10 mM; 50 mM Tris pH 8.0, 25 °C; RNA (1.4 mM stock) titrated into 0.1 mM ligand.

Test [8] relates to A8U (RNA, riboswitch) GGAGUAGUAGCGUUCAGCGGCCGAAAGGCCGCCCGGAAAUUGCUCC
Kind of test: ITC. To be noted: K+ 50 mM, Mg2+ 10 mM; 50 mM Tris pH 8.0, 25 °C; RNA (1.4 mM stock) titrated into 0.1 mM ligand.

Test [9] deals with G7Ap (RNA, riboswitch, 2-aminopurine at 7) GGAGUAGAAGCGUUCAGCGGAAACGCCCGGAAAUUGCUCC
The experiment in a line: 2-aminopurine fluorescence. The conditions noted are these: K+ 100 mM, Mg2+ 20 mM; 100 mM Tris-HCl pH 8.4, 20 °C; 0.5 μM RNA, 3 mM xanthine; qualitative.

For test [10], the system named is original sequence (GCCC loop) of the xanthine riboswitch (RNA, riboswitch) GGAGUAGAAGCGUUCAGCGGCCGCCCGGCCGCCCGGAAAUUGCUCC
The experiment in a line: ITC. The conditions noted are these: K+ 50 mM, Mg2+ 10 mM; 50 mM Tris pH 8.0, 25 °C; RNA titrated into 0.1 mM ligand.

The subject of test [11] is A8Ap (RNA, riboswitch, 2-aminopurine at 8) GGAGUAGAAGCGUUCAGCGGAAACGCCCGGAAAUUGCUCC
Kind of test: 2-aminopurine fluorescence. The conditions noted are these: K+ 100 mM, Mg2+ 20 mM; 100 mM Tris-HCl pH 8.4, 20 °C; 0.5 μM RNA, 3 mM xanthine; qualitative.

The subject of test [12] is C11U-G35A (RNA, riboswitch) GGAGUAGAAGUGUUCAGCGGCCGAAAGGCCGCCCAGAAAUUGCUCC
The experiment in a line: ITC. The conditions noted are these: K+ 50 mM, Mg2+ 10 mM; 50 mM Tris pH 8.0, 25 °C; RNA (1.4 mM stock) titrated into 0.1 mM ligand.

The test system of test [13] is G10A (RNA, riboswitch) GGAGUAGAAACGUUCAGCGGCCGAAAGGCCGCCCGGAAAUUGCUCC
Kind of test: ITC. The conditions noted are these: K+ 50 mM, Mg2+ 10 mM; 50 mM Tris pH 8.0, 25 °C; RNA (1.4 mM stock) titrated into 0.1 mM ligand.

The test system of test [14] is A16G/C33U (RNA, riboswitch) GGAGUAGAAGCGUUCGGCGGCCGAAAGGCCGCUCGGAAAUUGCUCC
Kind of test: ITC. To be noted: K+ 50 mM, Mg2+ 10 mM; 50 mM Tris pH 8.0, 25 °C; 4-fold less affinity.

In test [15] the test system is A16G (RNA, riboswitch) GGAGUAGAAGCGUUCGGCGGCCGAAAGGCCGCCCGGAAAUUGCUCC
The experiment in a line: ITC. To be noted: K+ 50 mM, Mg2+ 10 mM; 50 mM Tris pH 8.0, 25 °C; 4-fold less affinity.

The test system of test [16] is C34G (RNA, riboswitch) GGAGUAGAAGCGUUCAGCGGCCGAAAGGCCGCCGGGAAAUUGCUCC
The experiment in a line: ITC. The conditions noted are these: K+ 50 mM, Mg2+ 10 mM; 50 mM Tris pH 8.0, 25 °C; 3- to 4-fold decrease.

Test [17] has as its system C11G-G35C (RNA, riboswitch) GGAGUAGAAGGGUUCAGCGGCCGAAAGGCCGCCCCGAAAUUGCUCC
Kind of test: ITC. The conditions noted are these: K+ 50 mM, Mg2+ 10 mM; 50 mM Tris pH 8.0, 25 °C; RNA (1.4 mM stock) titrated into 0.1 mM ligand.

Test [18] deals with G10C (RNA, riboswitch) GGAGUAGAACCGUUCAGCGGCCGAAAGGCCGCCCGGAAAUUGCUCC
The experiment in a line: ITC. To be noted: K+ 50 mM, Mg2+ 10 mM; 50 mM Tris pH 8.0, 25 °C; RNA (1.4 mM stock) titrated into 0.1 mM ligand.

Test [19] concerns A6Ap (RNA, riboswitch, 2-aminopurine at 6) GGAGUAGAAGCGUUCAGCGGAAACGCCCGGAAAUUGCUCC
The experiment in a line: 2-aminopurine fluorescence. To be noted: K+ 100 mM, Mg2+ 20 mM; 100 mM Tris-HCl pH 8.4, 20 °C; 0.5 μM RNA, 3 mM xanthine; qualitative.

Test [20] concerns G12Ap (RNA, riboswitch, 2-aminopurine at 12) GGAGUAGAAGCGUUCAGCGGAAACGCCCGGAAAUUGCUCC
Kind of test: 2-aminopurine fluorescence. The conditions noted are these: K+ 100 mM, Mg2+ 20 mM; 100 mM Tris-HCl pH 8.4, 20 °C; 0.5 μM RNA, 3 mM xanthine; qualitative.

Test [21] concerns A9C (RNA, riboswitch) GGAGUAGACGCGUUCAGCGGCCGAAAGGCCGCCCGGAAAUUGCUCC
The experiment in a line: ITC. To be noted: K+ 50 mM, Mg2+ 10 mM; 50 mM Tris pH 8.0, 25 °C; RNA (1.4 mM stock) titrated into 0.1 mM ligand.

Test [22] has as its system A8C (RNA, riboswitch) GGAGUAGCAGCGUUCAGCGGCCGAAAGGCCGCCCGGAAAUUGCUCC
The experiment in a line: ITC. The conditions noted are these: K+ 50 mM, Mg2+ 10 mM; 50 mM Tris pH 8.0, 25 °C; RNA (1.4 mM stock) titrated into 0.1 mM ligand.

For test [23], the system named is U40A (RNA, riboswitch) GGAGUAGAAGCGUUCAGCGGCCGAAAGGCCGCCCGGAAAAUGCUCC
The experiment in a line: ITC. To be noted: K+ 50 mM, Mg2+ 10 mM; 50 mM Tris pH 8.0, 25 °C; RNA (1.4 mM stock) titrated into 0.1 mM ligand.

Test [24] concerns C11G (RNA, riboswitch) GGAGUAGAAGGGUUCAGCGGCCGAAAGGCCGCCCGGAAAUUGCUCC
The experiment in a line: ITC. The conditions noted are these: K+ 50 mM, Mg2+ 10 mM; 50 mM Tris pH 8.0, 25 °C; RNA (1.4 mM stock) titrated into 0.1 mM ligand.

Test [25] concerns G35C (RNA, riboswitch) GGAGUAGAAGCGUUCAGCGGCCGAAAGGCCGCCCCGAAAUUGCUCC
The experiment in a line: ITC. The conditions noted are these: K+ 50 mM, Mg2+ 10 mM; 50 mM Tris pH 8.0, 25 °C; RNA (1.4 mM stock) titrated into 0.1 mM ligand.

Turning to `O=c1[nH]cnc2c1ncn2[C@@H]1O[C@H](CO)[C@@H](O)[C@H]1O`, the binding result in test [1] is given as “no”.
For `O=c1[nH]c(=O)c2[nH]cnc2[nH]1`, the binding entry in [2] is given as “no”; in [3], “no”; in test [4], “yes”; in [5], “yes”; in test [6], “yes”; in test [7] it was “no”. In addition, the binding result in test [8] was “no”; in test [9], “yes”; in test [11], “yes”; in test [12], “no”; in test [13], “no”; in test [14], “yes”. In addition, the binding entry in test [15] was “yes”; in test [16] it was “yes”; in [17] it was “no”; in test [18], “no”; in test [19], “yes”; in test [20], “yes”. The binding entry in test [21], in test [22], in [23], in [24] and in test [25] was “no” in each case. Besides, the Kd (in general, the constant that tells how readily two partners part at equilibrium) in [10] was 3.6 ± 0.3 µM; in test [1] it was 4.4 ± 0.2 µM.
`O=c1[nH]cnc2nc[nH]c12`: the binding result in test [1] was “no”.
Molecule `O=c1[nH]c(=O)c2[nH]c(=O)[nH]c2[nH]1` displayed a Kd in test [1] of 20.4 ± 1.7 µM.
For the molecule `Nc1ncnc2[nH]cnc12`, in test [1], the binding result is listed as “no”.
In turn, `O=c1[nH]c(=O)c2[nH]nnc2[nH]1` returned a dissociation constant Kd in test [1] of 3.0 ± 0.1 µM.
On to `Nc1ncnc2c1ncn2[C@@H]1O[C@H](CO)[C@@H](O)[C@H]1O`, for which the binding result in test [1] is given as “no”.
